Laboratory results taken from patent US11207325B2, “Triazolopyrimidine compounds and uses thereof” (Novartis AG, priority 2014, dated 2021).

Experiments:
[1] = system: H3K27 methylation in G401 cell; experiment: ELISA (H3K27 methylation) assay; assay type: cell-based; settings: Homo sapiens, G-401; ELISA Qualified assay (H3K27 methylation); read-out: (c) IC50 (μM), ELISA Qualified
Source text: ELISA (H3K27 Methylation) Assay

[2] = system: B cell lymphoma cell KARPAS422; experiment: Analysis of cell proliferation; assay type: cell-based; settings: Homo sapiens, KARPAS-422, 336 h; B cell lymphoma cell KARPAS422 after 14 days of treatment; read-out: antiproliferative activities (IC50 values)
Protocol: Analysis of Cell Proliferation
B cell lymphoma cell KARPAS422 was cultured using standard cell culture conditions in RPMI-1640 (Invitrogen, cat #11875) supplemented with 15% FBS (Invitrogen, cat #10099-141) in humidified incubator at 37° C., 5% CO2. To assess the effect of PRC2 inhibition on cell proliferation, exponentially growing cells were seeded at a density of 1×10^5 cells/mL in 12-well plate (Corning, cat #CLS3513). After cell seeding, a compound of the present disclosure was added to the cell media (in concentrations ranging from 0 to 100 μM, 3× dilution series). Viable cell numbers were determined every 3-4 days for up to 14 days using Vi-CELL (Beckman Coulter). On days of cell counting, fresh growth media and compound were replenished and cells split back to a density of 1×10^5 cells/mL. Total cell number is expressed as split-adjusted viable cells per mL. The dose response curves and IC50 values were generated using Prism.

Row | SMILES | IC50 [1] | IC50 [2]
1 | Cc1ncccc1-c1cnc(NCc2c(F)ccc3occc23)n2cnnc12 [Example 207, N-((5-fluorobenzofuran-4-yl)methyl)-8-(2-methylpyridin-3-yl)-[1,2,4]triazolo[4,3-c]pyrimidin-5-amine] | 0.0036 µM | 1 nM
2 | Cc1nn(C(C)C)cc1-c1cnc(NCc2c(F)ccc3c2CCO3)n2cnnc12 [Example 4, N-((5-Fluoro-2,3-dihydrobenzofuran-4-yl)methyl)-8-(1-isopropyl-3-methyl-1H-pyrazol-4-yl)-[1,2,4]triazolo[4,3-c]pyrimidin-5-amine] | 0.0021 µM | 0.3 nM
3 | Cc1nc(C2CC2)ccc1-c1cnc(NCc2c(F)ccc3c2CCO3)n2cnnc12 [Example 6, 8-(6-Cyclopropyl-2-methylpyridin-3-yl)-N-((5-fluoro-2,3-dihydrobenzofuran-4-yl)methyl)-[1,2,4]triazolo[4,3-c]pyrimidin-5-amine] | 0.0038 µM | 0.2 nM
4 | Cc1ncccc1-c1cnc(NCc2c(F)ccc3c2CCO3)n2cnnc12 [Example 2, N-((5-fluoro-2,3-dihydrobenzofuran-4-yl)methyl)-8-(2-methylpyridin-3-yl)-[1,2,4]triazolo[4,3-c]pyrimidin-5-amine] | – | 3 nM
5 | Cc1cc(-c2cnc(NCc3c(F)ccc4c3CCO4)n3cnnc23)n(C)n1 [Example 1, 8-(1,3-dimethyl-1H-pyrazol-5-yl)-N-((5-fluoro-2,3-dihydrobenzofuran-4-yl)methyl)-[1,2,4]triazolo[4,3-c]pyrimidin-5-amine] | 0.0009 µM | 0.4 nM
6 | Cc1ncc(-c2cnc(NCc3c(F)ccc4c3CCO4)n3cnnc23)c(C)n1 [Example 3, 8-(2,4-Dimethylpyrimidin-5-yl)-N-((5-fluoro-2,3-dihydrobenzofuran-4-yl)methyl)-[1,2,4]triazolo[4,3-c]pyrimidin-5-amine] | 0.0034 µM | 0.7 nM
7 | COc1cc(C)c(-c2cnc(NCc3c(F)ccc4c3CCO4)n3cnnc23)cn1 [Example 5, N-((5-fluoro-2,3-dihydrobenzofuran-4-yl)methyl)-8-(6-methoxy-4-methylpyridin-3-yl)-[1,2,4]triazolo[4,3-c]pyrimidin-5-amine] | 0.0029 µM | 0.8 nM
8 | Cc1nc(C2CC2)ncc1-c1cnc(NCc2c(F)ccc3c2CCO3)n2cnnc12 [Example 8, 8-(2-cyclopropyl-4-methylpyrimidin-5-yl)-N-((5-fluoro-2,3-dihydrobenzofuran-4-yl)methyl)-[1,2,4]triazolo[4,3-c]pyrimidin-5-amine] | 0.0029 µM | 0.6 nM
9 | [O-][n+]1cccc(-c2cnc(NCc3c(F)ccc4c3CCO4)n3cnnc23)c1 [Example 10, 3-(5-(((5-fluoro-2,3-dihydrobenzofuran-4-yl)methyl)amino)-[1,2,4]triazolo[4,3-c]pyrimidin-8-yl)pyridine 1-oxide] | 0.001 µM | 17.4 nM
10 | OCc1ncccc1-c1cnc(NCc2c(F)ccc3c2CCO3)n2cnnc12 [Example 7, (3-(5-(((5-fluoro-2,3-dihydrobenzofuran-4-yl)methyl)amino)-[1,2,4]triazolo[4,3-c]pyrimidin-8-yl)pyridin-2-yl)methanol] | 0.0052 µM | 3 nM
11 | CCOc1ccc(-c2cnc(NCc3cccc4c3CCO4)n3cnnc23)cn1 [Example 63, N-((2,3-dihydrobenzofuran-4-yl)methyl)-8-(6-ethoxypyridin-3-yl)-[1,2,4]triazolo[4,3-c]pyrimidin-5-amine] | 0.198 µM | –
12 | Cc1cn(-c2cnc(NCc3c(F)ccc4c3CCO4)n3cnnc23)cn1 [Example 233, N-((5-fluoro-2,3-dihydrobenzofuran-4-yl)methyl)-8-(4-methyl-1H-imidazol-1-yl)-[1,2,4]triazolo[4,3-c]pyrimidin-5-amine] | 0.002 µM | –
13 | Fc1ccncc1-c1cnc(NCc2c(F)ccc3c2CCO3)n2cnnc12 [Example 47, N-((5-fluoro-2,3-dihydrobenzofuran-4-yl)methyl)-8-(4-fluoropyridin-3-yl)-[1,2,4]-triazolo[4,3-c]pyrimidin-5-amine] | 0.0103 µM | –
14 | CS(=O)(=O)c1cccc(-c2cnc(NCc3cccc4c3CCO4)n3cnnc23)c1 [Example 27, N-((2,3-dihydrobenzofuran-4-yl)methyl)-8-(3-(methylsulfonyl)phenyl)-[1,2,4]triazolo[4,3-c]pyrimidin-5-amine] | 0.365 µM | –
15 | OC1CN(c2ccc(-c3cnc(NCc4cccc5c4CCO5)n4cnnc34)cn2)C1 [Example 126, 1-(5-(5-(((2,3-dihydrobenzofuran-4-yl)methyl)amino)-[1,2,4]triazolo[4,3-c]pyrimidin-8-yl)pyridin-2-yl)azetidin-3-ol] | 0.656 µM | –
16 | Cc1cc(-c2cnc(NCc3cccc4c3CCO4)n3cnnc23)cnc1N1CCOCC1 [Example 73, N-((2,3-dihydrobenzofuran-4-yl)methyl)-8-(5-methyl-6-morpholinopyridin-3-yl)-[1,2,4]triazolo[4,3-c]pyrimidin-5-amine] | 0.332 µM | –
17 | COc1ncc(-c2cnc(NCc3c(F)ccc4c3CCO4)n3cnnc23)cn1 [Example 174, N-((5-fluoro-2,3-dihydrobenzofuran-4-yl)methyl)-8-(2-methoxypyrimidin-5-yl)-[1,2,4]triazolo[4,3-c]pyrimidin-5-amine] | 0.0042 µM | –
18 | Fc1ccc2c(c1CNc1ncc(-n3ccnc3)c3nncn13)CCO2 [Example 240, N-((5-fluoro-2,3-dihydrobenzofuran-4-yl)methyl)-8-(1H-imidazol-1-yl)-[1,2,4]triazolo[4,3-c]pyrimidin-5-amine] | 0.0014 µM | –
19 | Cc1ncc(-c2cnc(NCc3cccc4c3CCO4)n3cnnc23)cn1 [Example 60, N-((2,3-dihydrobenzofuran-4-yl)methyl)-8-(2-methylpyrimidin-5-yl)-[1,2,4]triazolo[4,3-c]pyrimidin-5-amine] | 0.299 µM | –
20 | Cc1nc(OC(C)C)ncc1-c1cnc(NCc2c(F)ccc3c2CCO3)n2cnnc12 [Example 9, N-((5-fluoro-2,3-dihydrobenzofuran-4-yl)methyl)-8-(2-isopropoxy-4-methylpyrimidin-5-yl)-[1,2,4]triazolo[4,3-c]pyrimidin-5-amine] | 0.0035 µM | 0.6 nM
21 | COc1ccc(-c2cnc(NCc3c(F)ccc4c3CCO4)n3cnnc23)cn1 [Example 142, N-((5-fluoro-2,3-dihydrobenzofuran-4-yl)methyl)-8-(6-methoxypyridin-3-yl)-[1,2,4]triazolo[4,3-c]pyrimidin-5-amine] | 0.0043 µM | –
22 | CN(C)Cc1ccc(-c2cnc(NCc3cccc4occc34)n3cnnc23)cc1 [Example 208, N-(benzofuran-4-ylmethyl)-8-(4-((dimethylamino)methyl)phenyl)-[1,2,4]triazolo[4,3-c]pyrimidin-5-amine] | 0.019 µM | –
23 | Cc1nc(OC2CC2)ncc1-c1cnc(NCc2c(F)ccc3c2CCO3)n2cnnc12 [Example 225, 8-(2-cyclopropoxy-4-methylpyrimidin-5-yl)-N-((5-fluoro-2,3-dihydrobenzofuran-4-yl)methyl)-[1,2,4]triazolo[4,3-c]pyrimidin-5-amine] | 0.0045 µM | –
24 | Cc1cc(S(C)(=O)=O)ncc1-c1cnc(NCc2c(F)ccc3c2CCO3)n2cnnc12 [Example 127, N-((5-fluoro-2,3-dihydrobenzofuran-4-yl)methyl)-8-(4-methyl-6-(methylsulfonyl)pyridin-3-yl)-[1,2,4]triazolo[4,3-c]pyrimidin-5-amine] | 0.028 µM | –
